Patent US7897770B2 (General Electric Company, priority 2007, dated 2011)

Target: T1, VMAT-2 (Homo sapiens, UniProt Q05940)
T1 construct: Novascreen Biosciences Corporation (contract assay provider) protocol Cat. No. 100-0751
Assay: VMAT-2 binding affinity measurement, Novascreen protocol Cat. No. 100-0751
Settings: for Ki: VMAT-2 binding affinity
Experimental: VMAT-2 binding affinity measurements were carried out by Novascreen Biosciences Corporation (Hanover, Md., USA) using protocol Cat. No. 100-0751. Novascreen, Inc. is a commercial provider of biological assays for the pharmaceutical industry.

T1 sequence (Q05940 whole entry, species assumed): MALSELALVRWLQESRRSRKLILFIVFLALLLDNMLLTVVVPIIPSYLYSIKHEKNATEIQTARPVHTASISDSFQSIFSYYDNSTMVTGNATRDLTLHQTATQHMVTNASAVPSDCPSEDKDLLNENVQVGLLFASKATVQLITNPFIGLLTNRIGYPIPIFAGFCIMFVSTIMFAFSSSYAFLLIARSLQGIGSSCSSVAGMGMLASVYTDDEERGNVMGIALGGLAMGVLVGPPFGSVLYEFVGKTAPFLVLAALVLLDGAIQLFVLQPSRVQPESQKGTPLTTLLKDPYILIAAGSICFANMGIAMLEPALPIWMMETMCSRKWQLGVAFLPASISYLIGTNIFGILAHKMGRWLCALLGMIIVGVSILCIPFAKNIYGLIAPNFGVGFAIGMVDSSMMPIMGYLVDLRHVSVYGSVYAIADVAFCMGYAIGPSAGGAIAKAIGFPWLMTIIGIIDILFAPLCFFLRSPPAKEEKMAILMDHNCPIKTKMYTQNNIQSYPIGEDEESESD

Row | VMAT-2 binding affinity, in words | Ki | SMILES
1 | very high binding affinity | 3.2 nM | COc1cc2c(cc1OC)[C@H]1C[C@@H](OCCF)[C@H](CC(C)C)CN1CC2 [Compound 22]
2 | very high binding affinity | 6.4 nM | COc1cc2c(cc1OC)[C@H]1C[C@@H](OCCCF)[C@H](CC(C)C)CN1CC2 [Compound 23]
